Values belong to the molecule of their own block, whether it stands above or below them.
How the values were obtained:
[1] = tested on: Phospho-ERK 1/2 (p-ERK) in monocytoid THP-1 cells; test: p-ERK level in monocytoid THP-1 cells (Bioplex Pro / Luminex MAGPIX); type: cell-based; settings: for effect on p-ERK levels: 10 μM, 1 hr exposure, monocytoid THP-1 cells, vs DMSO control
Experimental: Monocytoid THP-1 cells were obtained from ATCC (Manassas, Va.) and were cultured in RPMI-1640 medium, supplemented with 10% heat-inactivated fetal bovine serum (HIFBS), 2 mM L-glutamine, 100 U/100 […] penicillin/streptomycin and 0.05 mM 2-mercaptoethanol (all from Sigma, St Louis, Mo.). All cell lines were cultured at 37° C. in a humidified atmosphere containing 5% CO2. Phospho-ERK 1/2 (p-ERK) activity was measured using the Bioplex Pro Cell Signalling assay kit for ERK 1/2 (Biorad) and the Luminex MAGPIX® system according to the manufacturers' instructions. Measurements of p-ERK in CD4+ cells followed the protocol described by Gorelik et al. (J. Immunol. 2007; 179(8):5553-5563). Phosphorylation of ERK by upstream MAPK proteins such as MEK results in activation of ERK. Measurement of p-ERK levels in cells is used as an indicator of ERK signalling. The level of p-ERK in monocytoid THP-1 cells was measured using the Bioplex Pro Cell Signalling assay kit for ERK 1/2 (Biorad) and the Luminex MAGPIX® system. The assay is based on binding of the target of interest via antibodies to magnetic beads. The target is detected using biotinylated antibodies with a fluorescent reporter. The assay was performed according to the manufacturer's instructions. The levels of p-ERK in monocytoid THP-1 cells and PBMC cells were measured using the Bioplex Pro Cell Signalling assay kit for ERK 1/2 (Biorad) and the Luminex MAGPIX® system. The assay is based on binding of the target of interest via antibodies to magnetic beads. The target is detected using biotinylated antibodies with a fluorescent reporter. The assay was performed according to the manufacturer instructions. The levels of the phosphoprotein phospho-ERK (p-ERK) in cell lysates after 1 h exposure to mebendazole (10 μM)), fenbendazole (10 μM) or control (DMSO) in monocytoid THP-1 cells and PMA differentiated THP-1 macrophages was measured using the Luminex MAGPIX® system and the commercially available kit (Biorad, Hercules, Calif.) described above. The assay is based on binding of the target of interest via antibodies to magnetic beads. The target is detected using biotinylated antibodies with a fluorescent reporter. The assays were performed according to the manufacturer's instructions. Briefly, the protein concentrations in the cell lysates were first determined using a Micro-BCA method (ThermoFischer Scientific, Waltham, Mass., USA) to ensure equal amounts of samples in the assay and then measurements were performed by incubating the cell lysate samples with beads, then with detection antibody, and finally with streptavidin-PE. The fluorescence was measured using the MAGPIX instrument (BioRad) and the concentration levels were determined by fitting to a standard curve.

[2] = tested on: p-ERK in PMA differentiated THP-1 macrophages; test: p-ERK level in PMA differentiated THP-1 macrophages; type: cell-based; settings: 10 μM, 1 hr exposure, vs DMSO control
Experimental: Phospho-ERK 1/2 (p-ERK) activity was measured using the Bioplex Pro Cell Signalling assay kit for ERK 1/2 (Biorad) and the Luminex MAGPIX® system according to the manufacturers' instructions. Measurements of p-ERK in CD4+ cells followed the protocol described by Gorelik et al. (J. Immunol. 2007; 179(8):5553-5563). The levels of the phosphoprotein phospho-ERK (p-ERK) in cell lysates after 1 h exposure to mebendazole (10 μM)), fenbendazole (10 μM) or control (DMSO) in monocytoid THP-1 cells and PMA differentiated THP-1 macrophages was measured using the Luminex MAGPIX® system and the commercially available kit (Biorad, Hercules, Calif.) described above. The assay is based on binding of the target of interest via antibodies to magnetic beads. The target is detected using biotinylated antibodies with a fluorescent reporter. The assays were performed according to the manufacturer's instructions. Briefly, the protein concentrations in the cell lysates were first determined using a Micro-BCA method (ThermoFischer Scientific, Waltham, Mass., USA) to ensure equal amounts of samples in the assay and then measurements were performed by incubating the cell lysate samples with beads, then with detection antibody, and finally with streptavidin-PE. The fluorescence was measured using the MAGPIX instrument (BioRad) and the concentration levels were determined by fitting to a standard curve.

[3] = tested on: anti-(double stranded)-DNA antibodies in serum of NZBNZWF1 mice; test: In vivo efficacy study in SLE model, NZBNZWF1 mice, serum anti-dsDNA antibodies
Experimental: 40 female NZBNZWF1 mice (Envigo Europe) were fed and watered ad libitum and acclimatised for approximately 1 week before initiation of the experiment. Mice were 14 weeks old at the initiation of the experiment, and 16 weeks are the start of treatment. The mice were divided into 4 treatment groups of 10 mice each at the initiation of the experiment: • 1. Vehicle control: treatment with vehicle only • 2. Positive control: treatment with methotrexate (15 mg/kg) • 3. […] The positive control treatment of 15 mg/kg methotrexate was administered intraperitoneally 3 times per week for 8 weeks (weeks 16-24 of age of the mice). […] Serum was collected from all mice at initiation of the experiment (mice age 14 weeks), at start of treatment (mice age 16 weeks), and every second week during treatment (mice age 18, 20, 22, and 24 weeks), after treatment (mice age 26 and 28 weeks) and at termination (mice age 30 weeks). The serum samples were analysed for levels of antibodies directed against double stranded DNA (dsDNA) (anti-ds-DNA antibodies).

[4] = Serum mebendazole concentration in treated patient; type: in vivo; settings: human, 400 mg daily (2×200 mg), daily dose 400 mg (2×200 mg), after six weeks
Experimental: The serum mebendazole concentration at this time point was 71 ng/ml.

[5] = Treatment of sarcoidosis patient, PET/CT examination; type: in vivo, human; settings: one patient, 200 mg daily for six days then 400 mg daily (2×200 mg), after six weeks
Experimental: A daily dose of 200 mg (given as 2×100 mg) of mebendazole was administered for six consecutive days.

[6] = tested on: p-ERK in PBMC cells; test: p-ERK level in peripheral blood mononuclear cells (PBMC); type: cell-based; settings: PBMCs, FIG. 3b
Experimental: Peripheral blood mononuclear cells (PBMCs) from healthy donors were isolated by 1.077 g/ml Ficoll-Paque centrifugation and cryopreserved as described by Larsson et al. (Int J Cancer 1992; 50: 177-185). Cell viability was determined by trypan blue exclusion test. SLE PBMCs were obtained Astarte Biologics, WA, USA (cat no 1035, lot 3429DE16) in cryopreserved vials (10 million cells). CD4+ cells were subsequently isolated with an autoMACS® instrument and a CD4+ isolation kit from Miltenyi Biotec according to the manufacturer's description and the method described by Gorelik et al. (J. Immunol. 2007; 179(8):5553-5563). Phospho-ERK 1/2 (p-ERK) activity was measured using the Bioplex Pro Cell Signalling assay kit for ERK 1/2 (Biorad) and the Luminex MAGPIX® system according to the manufacturers' instructions. Measurements of p-ERK in CD4+ cells followed the protocol described by Gorelik et al. (J. Immunol. 2007; 179(8):5553-5563). The levels of p-ERK in monocytoid THP-1 cells and PBMC cells were measured using the Bioplex Pro Cell Signalling assay kit for ERK 1/2 (Biorad) and the Luminex MAGPIX® system. The assay is based on binding of the target of interest via antibodies to magnetic beads. The target is detected using biotinylated antibodies with a fluorescent reporter. The assay was performed according to the manufacturer instructions.

[7] = long-term high-dose (40 mg/kg/day); cited from earlier work
[8] = tested on: p-ERK in CD4+ T-cells from SLE patient; test: p-ERK in CD4+ T-cells isolated from PBMCs from an SLE patient; type: cell-based, human; settings: 10 μM and 30 μM
Experimental: Peripheral blood mononuclear cells (PBMCs) from healthy donors were isolated by 1.077 g/ml Ficoll-Paque centrifugation and cryopreserved as described by Larsson et al. (Int J Cancer 1992; 50: 177-185). Cell viability was determined by trypan blue exclusion test. SLE PBMCs were obtained Astarte Biologics, WA, USA (cat no 1035, lot 3429DE16) in cryopreserved vials (10 million cells). CD4+ cells were subsequently isolated with an autoMACS® instrument and a CD4+ isolation kit from Miltenyi Biotec according to the manufacturer's description and the method described by Gorelik et al. (J. Immunol. 2007; 179(8):5553-5563). Phospho-ERK 1/2 (p-ERK) activity was measured using the Bioplex Pro Cell Signalling assay kit for ERK 1/2 (Biorad) and the Luminex MAGPIX® system according to the manufacturers' instructions. Measurements of p-ERK in CD4+ cells followed the protocol described by Gorelik et al. (J. Immunol. 2007; 179(8):5553-5563). CD4+ T-Cells were isolated from PBMCs obtained from the venous blood of healthy donors and patients with SLE using the method described in Gorelik et al. (J. Immunol. 2007; 179(8):5553-5563). The level of p-ERK in the isolated CD4+ T-Cells was measured using the Bioplex Pro Cell Signalling assay kit for ERK 1/2 (Biorad) and the Luminex MAGPIX® system.

[9] = low-dose (Vermox), 6276 subjects, 39 clinical trials; cited from earlier work

Structure (SMILES): COC(=O)Nc1nc2ccc(Sc3ccccc3)cc2[nH]1 [Fenbendazole, fenbendazole]
effect on p-ERK levels [1]: did not increase | effect on p-ERK levels [2]: did not increase

concentration at 6 weeks [4]: 71 ng/mL
Structure (SMILES): COC(=O)Nc1nc2ccc(C(=O)c3ccccc3)cc2[nH]1 [mebendazole, Mebendazole]
concentration of anti-dsDNA antibodies in serum vs vehicle control group or methotrexate positive control group ([3]; 25 mg/kg or 50 mg/kg p.o., 5 days per week, weeks 16-24): lower concentrations | concentration of anti-dsDNA antibodies in serum, higher dose vs lower dose ([3]; 50 mg/kg vs 25 mg/kg p.o.): lower concentration | effect on p-ERK levels [1]: significantly increased | effect on p-ERK levels in THP-1 cells ([1]; FIG. 2, comparison with other tubulin-active agents): significantly increased | dose dependence of p-ERK level ([1]; THP-1 cells not treated with U0126): increased with an increasing dose | p-ERK fluorescence reading ([1]; THP-1 cells not treated with U0126, 30 μM mebendazole): approximately 1200 arb units | p-ERK fluorescence reading ([1]; THP-1 cells not treated with U0126, 1 μm mebendazole): approximately 500 arb units | PET scan outcome: FDG-signal and size of hilar and mediastinal nodes [5]: sarcoidosis in remission | dose dependence of p-ERK level [6]: increased with an increasing dose | tolerability [7]: generally well tolerated | p-ERK activity compared with CD4+ T-cells from a healthy donor [8]: restored the activity of p-ERK to at least the same level | subjects with related adverse events [9]: less than 1% | effect on p-ERK levels [2]: significantly increased
